Data taken from PMC11773334, “Preparation and pharmacokinetic evaluation of a sertraline-methylpropyphenazone prodrug: a comparative metabolic study on the plasma and brain tissues of rats using LC-MS/MS analysis” (RSC Advances, 2025).

What was measured:
[1] = QC sample stability in spiked rat plasma; format: in vitro ADME
Protocol: The working solutions were prepared separately for obtaining a 100 μg mL^−1 concentration. Calibration standards were generated from the working solution by spiking control plasma (100 μL) with a standard mixture to get the final concentrations: 25, 100, 250, 500, 1000, and 2000 ng mL^−1 plasma of each analyte. […]
Solid-phase extraction (SPE) was performed on the calibration standards prepared in plasma, quality control (QC) samples, rat plasma, and brain homogenate samples using Chromabond ® C8-100 mg columns (Macherey Nagel, Düren, Germany). […] The SPE column was filled with 25 μL of 0.1% aqueous ammonia solution, 100 μL plasma or brain homogenate, and 50 μL IS (20 ng μL^−1). […] The eluant was dried with nitrogen gas at room temperature, then reconstituted in 300 μL methanol, vortex, and transferred to a 0.9 mL total recovery autosampler vial, and dried with nitrogen gas.
(§1) The linearity of the targeted analytes was evaluated at six concentration levels spanning the range of 25–2000 ng mL^−1, and the calibration parameters were calculated. The method's accuracy was determined by calculating the estimated value for each QC sample compared with the actual concentration. The precision was assessed by analysis of QC samples at different concentrations (25.0, 500.0, and 2000.0 ng mL^−1) on separate days. The lowest point in the calibration curve was defined as the lower limit of quantification (LLOQ), which was determined to be at an acceptable accuracy and precision. The recovery of the extractions was evaluated by comparing the areas under the peak of the extracted samples with a non-extracted standard solution. Also, the matrix effect was evaluated by comparing the plasma sample spiked with the analyte with corresponding standard solutions at the same concentrations. Finally, the stability of the sample was investigated at three concentration levels, applying the same chromatographic conditions. The stability tests included long-term, short-term, and freeze-thaw stability.

[2] = cited from earlier work
[3] = Stability of standard solutions under storage conditions; format: physicochemical; conditions: room temperature for 6 h and 4 °C for 12 h
Protocol: as §1
Standard solutions were maintained at room temperature for 6 h and 4 °C for 12 h, and then analyzed using the developed method. […] Recoveries remained above 89%, and the standard deviation (SD%) values were below 3%, as detailed in Table 3.

[4] = Concentration in rat brain homogenate after oral administration (LC-MS/MS); format: in vivo, Wistar rats; conditions: 0.5 to 192 h after oral SER-MP
Protocol: Sildenafil was used as an internal standard (IS). […] The gradient program was configured as follows: 68% A from 0 to 2 min, raised to 96% A at 4.0 min, sustained at 96% A until 13 min, and then reverting back to 68% A at 13.1 min. […] The equilibration duration was 7.0 min. The sample injection volume was 5 μL.

rat serotonin (ST) = experiment: Analysis of serotonin in brain homogenate (ELISA sandwich kit); conditions: SER: within 1 to 3 h after oral administration, Fig. 6
Protocol: Wistar rats weighing 250 ± 30 g were included in the study. […] Phosphate-buffered saline (PBS) was utilized as a matrix to homogenize the brain samples. Both the brain and blood samples were frozen at −80 °C until their analysis.
An enzyme-linked immunosorbent assay (ELISA) sandwich kit was used in this study as it is known that it can accurately quantify rat serotonin (ST) in serum, plasma, cell culture supernatants, ascites, tissue homogenates, and other biological fluids. In the assay, first the plate was pre-coated with a rat ST antibody. When ST is present in the sample, it binds to the antibodies on the wells. Next, a biotinylated rat ST antibody was added, which binds to the ST in the sample. Streptavidin-HRP was then added, binding to the biotinylated ST antibody. After incubation, the unbound Streptavidin-HRP was washed away. […] The reaction was terminated by adding an acidic stop solution, and then the absorbance was measured at 450 nm.

[5] = Rat plasma pharmacokinetics after oral administration (LC-MS/MS, noncompartmental model)
Protocol: Sildenafil was used as an internal standard (IS). […] The MS conditions were set as follows: the ESI temperature was 330 °C, nitrogen gas flow rate was 11 L min^−1, nebulizer pressure was 35 psi, and capillary voltage was 4000 V. The MS settings were optimized for each compound, including the fragmentor voltage, dwell time (sec), and collision energy voltage. […] A gradient elution program was applied using a mobile phase composed of methanol (solvent A) and 0.7 g L^−1 ammonium acetate trihydrate in water with 0.1% formic acid (solvent B). […] The mobile phase was pumped at a flow rate of 0.4 mL min^−1. The equilibration duration was 7.0 min. The sample injection volume was 5 μL. The total running time for the analysis was 20 min. […] The SPE column was conditioned with 1 mL methanol and 2 mL of 0.1% aqueous ammonia solution. […] The SPE column was gently clicked to mix the solution, then allowed to elute just below the stationary phase surface before being trapped for 1 min in the stationary phase. The column was then washed with 1 mL of 0.1% ammonia solution, forcing nitrogen to eject water from the SPE column. The column was connected to a new port via a clean test tube, and the analytes were eluted using 3 mL ethyl acetate: n-hexane (2 : 1, v/v) and 1 mL methanol. […] The residue was dissolved in 50 μL methanol, and a 5 μL volume was injected for LC-MS/MS analysis. […] The results were expressed as the mean ± SD. The evaluated parameters included Cmax (maximum concentration), Tmax (time to reach Cmax), t1/2 (half-life), Ke (elimination rate constant), AUC (area under the concentration–time curve), AUMC (area under the first moment curve), and MRT (mean residence time). The data were analyzed using Kinetica® software, employing a noncompartmental analysis approach. […] The pharmacokinetic parameters between the groups were compared using an unpaired two-tailed t-test. Statistical significance was defined as P < 0.05.

[6] = rat plasma, oral SER-MP 16.0 mg kg^−1 (equimolar to SER dose), analyte SER-MP or released metabolite

Row | SMILES | Average recovery (%) ± SD, Autosampler (25 °C/24 h) ([1]; 50.0 ng mL^−1) | Average recovery (%) ± SD, Freeze-thaw (−20 °C/3 cycles) ([1]; 50.0 ng mL^−1) | Average recovery (%) ± SD, Autosampler (25 °C/24 h) ([1]; 500.0 ng mL^−1) | Average recovery (%) ± SD, Freeze-thaw (−20 °C/3 cycles) ([1]; 500.0 ng mL^−1) | Average recovery (%) ± SD, Autosampler (25 °C/24 h) ([1]; 2000.0 ng mL^−1) | Average recovery (%) ± SD, Freeze-thaw (−20 °C/3 cycles) ([1]; 2000.0 ng mL^−1) | Stability of standard solutions (change in peak area) [3] | other results
1 | CC(C)c1c(CO)n(C)n(-c2ccccc2)c1=O [3-OHMP, 3-hydroxymethylpropyphenazone] | 96.80 ± 0.98% | 94.39 ± 2.98% | 96.55 ± 1.20% | 95.47 ± 1.57% | 95.24 ± 2.56% | 95.73 ± 1.93% |  | 
2 | N[C@H]1CC[C@@H](c2ccc(Cl)c(Cl)c2)c2ccccc21 [N-desmethyl-SER, N-Desmethyl-sertraline] |  |  |  |  |  |  |  | Half-life (t1/2) ([2]; in vivo): 66 to 80 h
3 | CC(C)c1c(CN[C@H]2CC[C@@H](c3ccc(Cl)c(Cl)c3)c3ccccc32)n(C)n(-c2ccccc2)c1=O [nor-methyl-SER-MP] |  |  |  |  |  |  |  | Time retained in the plasma ([5]; rat plasma after oral SER-MP, major metabolite): 195 h

Further lines, with some results ahead:

Row | Average recovery (%) ± SD, Autosampler (25 °C/24 h) ([1]; 50.0 ng mL^−1) | Average recovery (%) ± SD, Freeze-thaw (−20 °C/3 cycles) ([1]; 50.0 ng mL^−1) | Average recovery (%) ± SD, Autosampler (25 °C/24 h) ([1]; 500.0 ng mL^−1) | Average recovery (%) ± SD, Freeze-thaw (−20 °C/3 cycles) ([1]; 500.0 ng mL^−1) | Average recovery (%) ± SD, Autosampler (25 °C/24 h) ([1]; 2000.0 ng mL^−1) | Average recovery (%) ± SD, Freeze-thaw (−20 °C/3 cycles) ([1]; 2000.0 ng mL^−1) | SMILES | Stability of standard solutions (change in peak area) [3] | other results
4 | 92.98 ± 1.35% | 91.04 ± 2.95% | 93.23 ± 0.98% | 90.68 ± 3.92% | 91.15 ± 2.20% | 89.23 ± 4.00% | CN[C@H]1CC[C@@H](c2ccc(Cl)c(Cl)c2)c2ccccc21 [SER, (1S,4S)-4-(3,4-dichlorophenyl)-N-methyl-1,2,3,4-tetrahydronaphthalen-1-amine] | No significant changes in peak area values | Fraction excreted as metabolites [2]: About 40%; Fraction in plasma bound to proteins [2]: About 98%
5 | 97.45 ± 0.78% | 95.70 ± 1.76% | 98.76 ± 1.03% | 96.84 ± 0.68% | 98.88 ± 0.80% | 94.99 ± 2.09% | CC(C)c1c(CN(C)C2CCC(c3ccc(Cl)c(Cl)c3)c3ccccc32)n(C)n(-c2ccccc2)c1=O (stereo not shown) [SER-MP, sertraline-methylpropyphenazone] | No significant changes in peak area values | Concentration of SER-MP in rat brain [4]: ~100 ng/g; Course of serotonin level in the brain after a single oral dose (rat serotonin (ST)): approximately steady level; half-life ([5]; Wistar, rat, plasma, po, 16 mg kg^−1, t1/2 (half-life), rat plasma, oral SER-MP 16.0 mg kg^−1 (equimolar to SER dose), analyte SER-MP or released metabolite): 50 h; Cmax ([5]; Wistar, rat, plasma, po, 16 mg/kg, Cmax (maximum plasma concentration), rat plasma, oral SER-MP 16.0 mg kg^−1 (equimolar to SER dose), analyte SER-MP or released metabolite): 192 ng/mL; Cmax (maximum plasma concentration) [5, 6]: 192.11 ng/mL; Total clearance rate [5, 6]: 4.32 mL/day/kg; t1/2 (half-life) [5, 6]: 49.97 h
